#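 Grown in 96-well plates, cells were treated for 48 hours with each compound at five concentrations. Insufficient inhibition: endpoint recorded as highest concentration tested. Here, GI50 denotes the concentration required for 50% inhibition of growth. At the TGI there is no net growth.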
# Experiments:
# Test in all cases: NCI tumour cell line growth inhibition, 48 h
# A549 NSCLC = test system: A549 NSCLC
# HCC-2998 colon = test system: HCC-2998 colon
# KM12 colon = test system: KM12 colon
# NCI-H460 lung = test system: NCI-H460 lung
# OVCAR-5 ovarian = test system: OVCAR-5 ovarian
# SF-268 CNS = test system: SF-268 CNS
# SK-MEL-2 melanoma = test system: SK-MEL-2 melanoma
# SK-MEL-28 melanoma = test system: SK-MEL-28 melanoma
# SK-OV-3 ovarian = test system: SK-OV-3 ovarian
SMILES,TGI (A549 NSCLC) [µM],TGI (HCC-2998 colon) [µM],TGI (KM12 colon) [µM],TGI (NCI-H460 lung) [µM],TGI (OVCAR-5 ovarian) [µM],TGI (SF-268 CNS) [µM],TGI (SK-MEL-2 melanoma) [µM],TGI (SK-MEL-28 melanoma) [µM],TGI (SK-OV-3 ovarian) [µM],GI50 (A549 NSCLC) [µM],GI50 (HCC-2998 colon) [µM],GI50 (KM12 colon) [µM],GI50 (NCI-H460 lung) [µM],GI50 (SF-268 CNS) [µM],GI50 (SK-MEL-2 melanoma) [µM],GI50 (SK-MEL-28 melanoma) [µM],GI50 (SK-OV-3 ovarian) [µM]
COC(=O)/C(=N\NC(N)=S)C(C#N)c1ccccc1 (configuration not stated),> 100,> 100,> 100,> 100,> 100,> 100,> 100,> 100,> 100,,,,,,,,
COc1cc2cc3c4c(cc(OC)c(OC)c4c2cc1OC)CCN3C(=O)CCC(=O)NCCCN(C)C,> 100,> 100,> 100,> 100,,> 100,41.9,> 100,> 100,,,,,,,,
COc1ccc(S(=O)(=O)N(C)CC(=O)O)cc1,> 100,> 100,> 100,> 100,> 100,> 100,> 100,> 100,> 100,,,,,,,,
C/C(CC(=O)N(C(C)C)C(C)C)=N\NC(=O)c1ccncc1,> 100,> 100,,,,> 100,,> 100,> 100,,,,,,,,
COc1ccc(OC)c2c3c(ccc12)C(c1ccccc1)OC3=O (configuration not stated),> 100,> 100,> 100,> 100,> 100,> 100,> 100,> 100,> 100,,,,,,,,
COc1ccc2nc3ccccc3c(NCCCCN(C)CCCl)c2c1,1.87,0.467,0.4,0.234,1.08,0.756,0.666,2.39,0.469,,,,,,,,
C[C@@H]1C[C@]2(C[C@@H](C)C3[C@@H](CC4(C)[C@@H]5CCC6C(C)(C)OC(=O)C=C[C@]67C[C@@]5(CC[C@]34C)OO7)O2)OC1=O (some centres not stated),> 100,> 100,,> 100,> 100,,> 100,> 100,> 100,,,,,,,,
CC(=O)Oc1ccc2c(c1)CC[C@@H]1C2CC[C@]2(C)C(=O)NC(=O)CC12 (some centres not stated),> 100,> 100,> 100,> 100,> 100,> 100,,> 100,> 100,,,,,,,,
FC1OC2OC1C(OCc1ccccc1)C(OCc1ccccc1)C2OCc1ccccc1 (configuration not stated),> 100,,> 100,> 100,> 100,> 100,> 100,> 100,> 100,,,,,,,,
CC(=O)C1C(=O)N(C(C)C)C[C@@H]2CCC(=O)C[C@H]12 (some centres not stated),> 100,> 100,> 100,> 100,,> 100,> 100,> 100,> 100,,,,,,,,
CCOc1ccc(C(CN2CCOCC2)C(C)=O)cc1OC (configuration not stated),51.7,32.3,29,32.5,33.2,41,28.4,35.8,,,,,,,,,
N[C@@H]1CCCC[C@@H]1N.O=P([O-])([O-])CN(CP(=O)([O-])[O-])CP(=O)([O-])[O-].[Pt+2],> 100,> 100,> 100,> 100,,> 100,> 100,> 100,> 100,> 100,> 100,> 100,> 100,> 100,> 100,> 100,> 100
C[C@]12CC[C@H](OC3CCCCO3)CC1=CC[C@@H]1C2CC[C@]2(C)/C(=N/O)CCC12 (some centres not stated),34.9,37.8,32.4,62.1,75.6,,89.7,54.3,82,,,,,,,,
COc1nc(NC2OC(COC(C)=O)C(OC(C)=O)C(OC(C)=O)C2OC(C)=O)c(-c2csc(N)n2)c(=O)n1C (configuration not stated),> 100,,> 100,> 100,> 100,> 100,90.2,> 100,> 100,,,,,,,,
CCOC(=O)[C@H]1Nc2ccccc2C2c3ccccc3CC21 (some centres not stated),> 100,> 100,> 100,> 100,> 100,> 100,> 100,> 100,,,,,,,,,
O=c1cc(-c2ccccn2)[nH]c2ccc(Cl)cc12,,> 100,> 100,> 100,> 100,66.7,,> 100,> 100,,,,,23.4,,,
CCCCCCCCCCCCOP(N)(=O)OCCCCCCCCCCCC,> 100,> 100,,> 100,,> 100,,> 100,> 100,,,,,,,,
COc1ccc(C2CCc3cc4c(cc3/C2=N/OC(C)=O)OCO4)cc1OC (configuration not stated),80.1,,54.8,,> 100,> 100,64.7,57.4,95.3,,,,,,,,
CCC1CNC(=O)CC1CC(=O)OC (configuration not stated),> 100,> 100,> 100,,> 100,> 100,> 100,> 100,> 100,,,,,,,,

# — PubChem BioAssay (NCI)
